In the NIST ThermoML archive (doi:10.1016/j.tca.2015.12.007):
Where “and” joins values, the source holds several entries; their conditions need not be identical. Identical values can stand only once.

Assays:
[1] = Crystal, Calculated from knudsen effusion weight loss
[2] = molar enthalpy of vaporization or sublimation; conditions: 298.15 K; Crystal; Static calorimetry

CC(C)C1C(=O)NC(=O)NC1=O [5-isopropylbarbituric acid]
[1]
Conditions | vapor or sublimation pressure
369.16 K | 0.000115 kPa and 0.000107 kPa and 0.000106 kPa
371.12 K | 0.000138 kPa and 0.000135 kPa
373.08 K | 0.000167 kPa and 0.000169 kPa and 0.000166 kPa
375.16 K | 0.000204 kPa and 0.000202 kPa and 0.000216 kPa
377.12 K | 0.000254 kPa and 0.000251 kPa and 0.000257 kPa
379.09 K | 0.000314 kPa and 0.000311 kPa and 0.000303 kPa
381.16 K | 0.000371 kPa and 0.00037 kPa and 0.000389 kPa
383.11 K | 0.000461 kPa and 0.000453 kPa and 0.000465 kPa
385.09 K | 0.000559 kPa and 0.000555 kPa and 0.000554 kPa
387.15 K | 0.000674 kPa and 0.000675 kPa and 0.000708 kPa
389.13 K | 0.000839 kPa and 0.000843 kPa and 0.000844 kPa
391.11 K | 0.000998 kPa and 0.001017 kPa and 0.001009 kPa

Conditions | molar enthalpy [kJ/mol]
[2] | 125
